Measured values published in patent US20060159727A1, “Prevention of Systemic Microbial Infection” (priority 2005, published 2006).

What was measured:
salmonella = experiment: Concentration of salmonella in organs of challenged chicks fed test material; type: in vivo; settings: chicks fed supplemented diet from hatch, sacrificed at 14 days
Procedure: Newly hatched chicks were fed a diet supplemented with the test materials, at 7 days of age, chicks were challenged 0.2 ml of a 2×10^9 salmonella culture. Chicks were sacrificed at 14 days of age (1 week after bacterial challenge), their organs dissected and cultured to determine bacterial counts.

[1] = system: Salmonella enteriditis phage type VIII (SePT8); experiment: Susceptibility test: paper disk zone of inhibition on inoculated agar plate; type: cell-based; settings: paper disk impregnated with fixed concentration of test material, 2 days
Procedure: An agar plate was uniformly inoculated with salmonella and a paper disk impregnated with a fixed concentration of test material was placed on top of the agar surface. […] The bacteria used was Salmonella enteriditis phage type VIII (SePT8). The study was conducted for 2 days. A disk soaked in sterile water was used as control.

E. coli = settings: cited from earlier work

Molecule | concentration of salmonella in Liver (salmonella; challenged at 7 days with 0.2 ml of 2×10^9 culture, liver) | concentration of salmonella in Ceca (salmonella; challenged at 7 days, ceca) | concentration of salmonella in Colon (salmonella; challenged at 7 days, colon) | concentration of salmonella in Duodenum (salmonella; challenged at 7 days, duodenum) | concentration of salmonella in Spleen (salmonella; challenged at 7 days, spleen) | Zone of Inhibition [1] | citral concentration in growth media that reduced the concentration of E. coli (E. coli) | citral concentration with bactericidal effect (E. coli; growth media, E. coli)
O=S(=O)([O-])[O-].[Cu+2] [Copper Sulfate] | 11 cfu | 54 cfu | 74 cfu | 19 cfu | 10 cfu | 1.444 mm |  | 
CC(C)=CCCC(C)=CC=O [citral] |  |  |  |  |  |  | more than 0.01% | 0.08%
Gentamycin |  |  |  |  |  | 1.300 mm |  | 
